The values that follow come from patent US11932850B2, “Cancer chemoprevention with STAT3 blockers” (Jill M. Siegfried, LLC, priority 2018, dated 2024).

For series [1], the system named is K-RAS G12D mutation in tumors. As to conditions: tumors 20 weeks post treatment, P>0.1.
In a further series the test system is 201T xenografts. Kind of series: 201T NSCLC xenograft tumor growth. The series is classed as in vivo, nude mice. Here is the method:
Based on the in vitro effects of CS3D, antitumor effects were evaluated in mice harboring established NSCLC xenografts (10 tumors/group). When tumors reached 200 mm3, mice were given daily intravenous injections (tail vein) of CS3D or CS3M (5 mg/kg/d), 5 days per week, and tumor growth was monitored for 14-20 days. CS3D caused a significant and robust tumor growth inhibition in 201T- and H1975-derived xenografts compared to treatment with CS3M.
FIGS. 7A and 7B show CS3D suppresses NSCLC xenograft tumor growth. Intravenous delivery of CS3D inhibits tumor growth in both wild-type (FIG. 7A, 201T) and mutant EGFR T790M (FIG. 7B, H1975) xenografts. Approximately 1×10^6 cells were inoculated subcutaneously in the flanks of nude mice. Following the development of palpable tumors (about […]), mice were randomized and given daily injections of either CS3D or CS3M (5 mg/kg/day; 10 tumors/group). Experiments were done twice as biological replicates. Tumor volumes were recorded every other day while animal weights were also monitored during the course of the treatment. […]
All studies were approved by the University of Minnesota Institutional Animal Care and Use Committee and were carried out in accordance with institutional guidelines for animal care. […] Volumes were calculated from the formula V=(Length×Width^2)/2. […]

For series [2], the system named is c-Myc in H1975-derived tumors. Kind of series: c-Myc expression in H1975 xenograft tumors (Western blot). The class given is in vivo, nude mice. Here is the method: FIGS. 7C and 7D show c-Myc is suppressed after CS3D treatment in vivo. At the end of the treatments, tumors were harvested, whole cell lysates were prepared and RNA extracted for target gene analysis by Western blotting and RT-qPCR GAPDH protein was used as internal loading control for immunoblotting. CS3D treated tumors (C4, C5, and C6) from separate animals show a decrease in c-Myc expression level relative to the CS3M-treated group (C1, C2, and C3) in 201T. […] Data are shown as mean+/−SEM.
To determine how CS3D blocks NSCLC growth, Western blot, qRT-PCR, and immunohistochemical analysis were performed to determine expression of c-Myc in residual tumors. These analyses identified a substantial downregulation of c-Myc protein (FIGS. 7C and 7D) and mRNA levels (FIG. 7E) in individual CS3D-treated tumors relative to CS3M-treated tumors in both 201T and H1975 xenografts. Some variability in protein levels among individual xenografts was observed (FIGS. 7C and 7D); the densitometry units for c-Myc protein after normalizing for GAPDH levels ranged from 0.11-0.16 units for CS3D-treated xenografts and 0.25-0.46 units for CS3M-treated tumors in H1975. Similarly, in 201T-derived tumors these measurements ranged from 0.015 to 0.51 units for CS3D and 0.28 to 0.97 units for CS3M. Even with this variability, the effect across the groups in both cell lines was significant (P<0.05 for H1975 and P<0.042 for 201T xenografts), with a mean decrease of 65% and 70%, respectively.

For a further series, the system named is c-Myc mRNA in 201T cells. Kind of series: RT-qPCR of c-Myc mRNA after EGF, 201T. As to conditions: single transfection, EGF 10 ng/ml 1.5 hr. The series is classed as cell-based, human. (Quantitative PCR measures a nucleic acid by following its amplification.)
Series [3] has as its system cleaved caspase-3 in H1975 xenografts. Kind of series: IHC of cleaved caspase-3 in H1975 xenografts at end of treatment. The class given is in vivo, nude mice. As to conditions: after last day of treatment (day 14). The text has this: For mRNA levels in tumor lysates, CS3D produced a 60-70% reduction of c-Myc gene expression relative to GAPDH compared to CS3M (FIG. 7E). […] Some cleaved caspase 3 staining was localized in nuclei, where caspase-3 is known to be active. Some caspase 3 staining was also evident in fibroblasts.
Immunohistochemical analysis: Tumors were excised for immunohistochemical (IHC) staining; 5-μm (micron) sections were cut from formalin-fixed paraffin-embedded tissue blocks, deparaffinized and rehydrated using successive washes of xylene followed by ethanol. Antigen retrieval was performed in a microwave oven (for 20 minutes) in an unmasking solution containing sodium citrate buffer followed by peroxidase blocking in 3% hydrogen peroxide. The sections were incubated in ABC blocking buffer (Vector laboratories Inc, Burlingame, California) for 1 hour at room temperature. Sections were then stained with H&E (hematoxylin and eosin) or subjected to sequential incubations with different primary antibodies and peroxidase-conjugated goat anti-rabbit secondary antibodies. […] Staining was graded as low (<30% positive cells per field, scored as 1), moderate (30-60% positive cells per field, scored as 2) or high (>60% positive cells per field, scored as 3).

Turning to “CS3D (DNA GATTTACGGGAAATGCSCATTTCCC; cyclic decoy with two hexaethylene glycol linkers, further chemistry not given here)”, the “proportion of tumors positive for K-RAS mutation, CS3D vs CS3M” value in series [1] was “no significant difference”. The “reduction in tumor growth (tumor volume)” value with 201T xenografts (201T xenograft, 5 mg/kg/d iv, 5 days per week, compared to CS3M) turned out to be 96.5%. The “tumor growth inhibition at 14 days” value in the series on 201T xenografts (both KRAS WT cell lines (201T and H1975), as reported (Njatcha et al 2017)) is “over 85%”. In addition, in series [2] (H1975 xenograft tumors, range among individual tumors), the “c-Myc protein densitometry normalized for GAPDH” value is reported as 0.11-0.16 units. Besides, in series [2] (H1975 xenografts, CS3D vs CS3M), the “mean decrease of c-Myc protein” value was determined as 65%. For the same substance, the “inhibition in mRNA level of c-Myc” value in the series with c-Myc mRNA in 201T cells worked out at 50%. The “fields scoring high level of cleaved caspase-3” value in series [3] worked out at 83%.
